The target of this assay is human SCD1 (Homo sapiens (Human), UniProt O00767). Description: SCD enzyme activity assay (conversion of radiolabeled stearoyl-CoA to oleoyl-CoA), human SCD1. Type of assay: biochemical. Particulars: human SCD1 from baculovirus/Sf9 expression system, reconstituted with cytochrome B5 and cytochrome B5 reductase; read-out: IC50 hSCD-1. The protocol: I. SCD Enzyme Activity Assay:
The potency of compounds of formula I against the stearoyl-CoA desaturase was determined by measuring the conversion of radiolabeled stearoyl-CoA to oleoyl-CoA using rat liver microsome or human SCD1 following previously published procedures with some modifications (Joshi, et al., J. Lipid Res., 18: 32-36 (1977); Talamo, et al., Anal. Biochem, 29: 300-304 (1969)). Liver microsome was prepared from male Wistar or Sprague Dawley rats on a high carbohydrate diet for 3 days (LabDiet #5803, Purina). The livers were homogenized (1:10 w/v) in a buffer containing 250 mM sucrose, 1 mM EDTA, 5 mM DTT and 50 mM Tris-HCl (pH 7.5). After a 100,000×g centrifugation for 60 min, the liver microsome pellet was suspended in a buffer containing 100 mM sodium phosphate, 20% glycerol, 2 mM DTT, and stored at −78° C. Human SCD1 desaturase system was reconstituted using human SCD1 from a baculovirus/Sf9 expression system, cytochrome B5 and cytochrome B5 reductase. Typically, test compound in 2 μL DMSO was incubated for […] at room temperature with 180 μL of the SCD enzyme in a buffer containing 100 mM Tris-HCl (pH 7.5), ATP (5 mM), Coenzyme-A (0.1 mM), Triton X-100 (0.5 mM) and NADH (2 mM). The reaction was initiated by the addition of 20 μL of [^3H]-stearoyl-CoA (final concentration=2 μM, radioactivity concentration=1 μCi/mL). After 10 mM, the reaction mixture (80 μL) was mixed with a calcium chloride/charcoal aqueous suspension (100 μL charcoal (10% w/v) plus 25 μL CaCl2 (2N). After centrifugation to precipitate the radioactive fatty acid species, tritiated water released from 9,10-[^3H]-stearoyl-CoA by the SCD enzyme was quantified on a scintillation counter.
Sequence of human SCD1 (O00767 whole entry): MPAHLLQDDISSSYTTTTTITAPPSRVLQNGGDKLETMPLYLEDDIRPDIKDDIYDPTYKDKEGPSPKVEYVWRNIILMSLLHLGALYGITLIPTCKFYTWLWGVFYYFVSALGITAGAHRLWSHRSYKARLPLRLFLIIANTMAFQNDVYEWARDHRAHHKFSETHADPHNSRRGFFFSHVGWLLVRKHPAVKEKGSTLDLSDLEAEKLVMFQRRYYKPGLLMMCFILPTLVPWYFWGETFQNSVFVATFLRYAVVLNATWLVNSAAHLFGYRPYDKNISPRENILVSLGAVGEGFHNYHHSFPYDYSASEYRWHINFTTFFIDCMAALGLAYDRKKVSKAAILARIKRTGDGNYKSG
On to `O=C(O)Cn1nnc(-c2nnc(N3CCC4(CCc5c(Cl)cccc5O4)CC3)s2)n1` [Example 1, {5-[5-(5-Chloro-3,4-dihydro-1′H-spiro[chromene-2,4′-piperidin]-1′-yl)-1,3,4-thiadiazol-2-yl]-2H-tetrazol-2-yl}acetic acid], for which the IC50 was determined as 12 nM.
The figure for `O=C(O)Cn1nnc(-c2cc(N3CCC4(CCc5c(Cl)cccc5O4)CC3)no2)n1` [Example 2, {5-[3-(5-Chloro-3,4-dihydro-1′H-spiro[chromene-2,4′-piperidin]-1′-yl)isoxazol-5-yl]-2H-tetrazol-2-yl}acetic acid] is 11 nM; for `O=C(O)Cn1nnc(-c2cnc(N3CCC4(CCc5c(Cl)cccc5O4)CC3)s2)n1` [Example 3, {5-[2-(5-Chloro-3,4-dihydro-1′H-spiro[chromene-2,4′-piperidin]-1′-yl)-1,3-thiazol-5-yl]-2H-tetrazol-2-yl}acetic acid] it is 13 nM; for `O=C(O)Cn1nnc(-c2cnc(N3CCC4(CC3)CC(=O)c3ccccc3O4)s2)n1` [Example 4, {5-[2-(4-Oxo-3,4-dihydro-1′H-spiro[chromene-2,4′-piperidin]-1′-yl)-1,3-thiazol-5-yl]-2H-tetrazol-2-yl}acetic acid] it is 41 nM.
The value for `O=C(O)Cn1nnc(-c2cnc(N3CCC4(CCc5ccccc54)CC3)s2)n1` [Example 5, {5-[2-(2,3-Dihydro-1′H-spiro[indene-1,4′-piperidin]-1′-yl)-1,3-thiazol-5-yl]-2H-tetrazol-2-yl}acetic acid] was 49 nM; that for `O=C(O)Cn1nnc(-c2cnc(N3CCC4(CC3)COc3ccccc34)s2)n1` [Example 6, {5-[2-(1′H-Spiro[1-benzofuran-3,4′-piperidin]-1′-yl)-1,3-thiazol-5-yl]-2H-tetrazol-2-yl}acetic acid] was 65 nM.
Consider `O=C(O)Cn1nnc(-c2cnc(N3CCC4(C=Cc5ccccc54)CC3)s2)n1` [Example 7, {5-[2-(1′H-Spiro[indene-1,4′-piperidin]-1′-yl)-1,3-thiazol-5-yl]-2H-tetrazol-2-yl}acetic acid], for which the IC50 was 244 nM.
The value for `O=C(O)Cn1nnc(-c2nnc(N3CCC4(CC3)CC(=O)c3ccccc3O4)s2)n1` [Example 8, {5-[5-(4-Oxo-3,4-dihydro-1′H-spiro[chromene-2,4′-piperidin]-1′-yl)-1,3,4-thiadiazol-2-yl]-2H-tetrazol-2-yl}acetic acid] was 708 nM.
The value for `O=C(O)Cn1nnc(-c2cnc(N3CCC4(CC3)NC(=O)c3ccccc3O4)s2)n1` [Example 9, {5-[2-(4-Oxo-3,4-dihydro-1′H-spiro[1,3-benzoxazine-2,4′-piperidin]-1′-yl)-1,3-thiazol-5-yl]-2H-tetrazol-2-yl}acetic acid] was 181 nM; that for `O=C(O)Cn1nnc(-c2nnc(N3CCC4(CC3)Cc3ccccc3C(=O)O4)s2)n1` [Example 10, {5-[5-(1-Oxo-1,4-dihydro-1′H-spiro[isochromene-3,4′-piperidin]-1′-yl)-1,3,4-thiadiazol-2-yl]-2H-tetrazol-2-yl}acetic acid] was 338 nM.
Take `COc1cccc2c1CCC1(CCN(c3nnc(-c4nnn(CC(=O)O)n4)s3)CC1)O2` [Example 11, {5-[5-(5-Methoxy-3,4-dihydro-1′H-spiro[chromene-2,4′-piperidin]-1′-yl)-1,3,4-thiadiazol-2-yl]-2H-tetrazol-2-yl}acetic acid]: the 50% inhibitory concentration (IC50) amounted to 13 nM.
As for `O=C(O)Cn1nnc(-c2nnc(N3CCC4(CCc5c(O)cccc5O4)CC3)s2)n1` [Example 12, {5-[5-(5-Hydroxy-3,4-dihydro-1′H-spiro[chromene-2,4′-piperidin]-1′-yl)-1,3,4-thiadiazol-2-yl]-2H-tetrazol-2-yl}acetic acid], the half-inhibitory concentration (IC50) came to 366 nM.
For the molecule `O=C(O)Cn1nnc(-c2cc(N3CCC4(CCc5c(OC(F)(F)F)cccc5O4)CC3)no2)n1` [Example 16, (5-{3-[5-(Trifluoromethoxy)-3,4-dihydro-1H-spiro[chromene-2,4′-piperidin]-1′-yl]isoxazol-5-yl}-2H-tetrazol-2-yl)acetic acid], the half-maximal inhibitory concentration (IC50) stood at 1 nM.
The figure for `O=C(O)Cn1nnc(-c2nnc(N3CCC4(CCc5c(OC(F)(F)F)cccc5O4)CC3)s2)n1` [Example 17, (5-{5-[5-(Trifluoromethoxy)-3,4-dihydro-1′H-spiro[chromene-2,4′-piperidin]-1′-yl]-1,3,4-thiadiazol-2-yl}-2H-tetrazol-2-yl)acetic acid] is 1 nM; for `O=C(O)Cn1nnc(-c2cnc(N3CCC4(CCc5c(OC(F)(F)F)cccc5O4)CC3)s2)n1` [Example 18, (5-{2-[5-(Trifluoromethoxy)-3,4-dihydro-1′H-spiro[chromene-2,4′-piperidin]-1′-yl]-1,3-thiazol-5-yl}-2H-tetrazol-2-yl)acetic acid] it is 1 nM; for `O=C(O)Cn1nnc(-c2cc(N3CCC4(CCc5c(Br)cccc5O4)CC3)no2)n1` [Example 22, {5-[3-(5-Bromo-3,4-dihydro-1′H-spiro[chromene-2,4′-piperidin]-1′-yl)isoxazol-5-yl]-2H-tetrazol-2-yl}acetic acid] it is 1 nM.
The figure for `O=C(O)Cn1nnc(-c2cnc(N3CCC4(CCc5c(Br)cccc5O4)CC3)s2)n1` [Example 28, {5-[2-(5-Bromo-3,4-dihydro-1′H-spiro[chromene-2,4′-piperidin]-1′-yl)-1,3-thiazol-5-yl]-2H-tetrazol-2-yl}acetic acid] is 1 nM.
In the case of `Cc1cccc2c1CCC1(CCN(c3ncc(-c4nnn(CC(=O)O)n4)s3)CC1)O2` [Example 42, {5-[2-(5-Methyl-3,4-dihydro-1′H-spiro[chromene-2,4′-piperidin]-1′-yl)-1,3-thiazol-5-yl]-2H-tetrazol-2-yl}acetic acid], the 50% inhibitory concentration (IC50) amounted to 1 nM.
The value for `O=C(O)Cn1nnc(-c2cnc(N3CCC4(CC3)Cc3cccc(Cl)c3C(=O)O4)s2)n1` [Example 46, {5-[2-(8-Chloro-1-oxo-1,4-dihydro-1′H-spiro[isochromene-3,4′-piperidin]-1′-yl)-1,3-thiazol-5-yl]-2H-tetrazol-2-yl}acetic acid] was 21 nM.
The figure for `O=C(O)Cn1nnc(-c2cnc(N3CCC4(CC3)NC(=O)c3c(Cl)cccc3O4)s2)n1` [Example 54] is 62 nM; for `O=C(O)Cn1ccn(-c2cnc(N3CCC4(CCc5c(Cl)cccc5O4)CC3)s2)c1=O` [Example 68, {3-[2-(5-Chloro-3,4-dihydro-1′H-spiro[chromene-2,4′-piperidin]-1′-yl)-1,3-thiazol-5-yl]-2-oxo-2,3-dihydro-1H-imidazol-1-yl}acetic acid] it is 3 nM.
The figure for `O=C(O)Cn1nnc(-c2nnc(N3CCC4(CCc5c(cccc5C(F)(F)F)O4)CC3)s2)n1` [Example 75, (5-{5-[5-(Trifluoromethyl)-3,4-dihydro-1′H-spiro[chromene-2,4′-piperidin]-1′-yl]-1,3,4-thiadiazol-2-yl}-2H-tetrazol-2-yl)acetic acid] is 1 nM; for `O=C(O)Cn1nnc(-c2cnc(N3CCC4(CCc5c(cccc5C(F)(F)F)O4)CC3)s2)n1` [Example 76, (5-{2-[5-(Trifluoromethyl)-3,4-dihydro-1′H-spiro[chromene-2,4′-piperidin]-1′-yl]-1,3-thiazol-5-yl}-2H-tetrazol-2-yl)acetic acid] it is 1 nM; for “{4-[5-(5-Chloro-3,4-dihydro-1′H-spiro[chromene-2,4′-piperidin]-1′-yl)-1,3,4-thiadiazol-2-yl]-1H-1,2,3-triazol-1-yl}acetic acid [Example 72]” it is 3 nM.

Values taken from patent publication US9168248B2, “Spiro compounds useful as inhibitors of stearoyl-coenzyme A delta-9 desaturase” (Merck Canada Inc., priority 2009, dated 2015).
